Measurements: ChEMBL document CHEMBL1146856, “Novel, orally bioavailable gamma-aminoamide CC chemokine receptor 2 (CCR2) antagonists” (J Med Chem, 2006)

Key:
[1] = biological target: T1, C-C chemokine receptor type 2 (Homo sapiens, UniProt P41597); experiment: Inhibition of [125I]MCP1 binding to CCR2 expressed in CHO cells at 1 uM; type: cell-based
Target sequence in this assay (P41597 whole entry, looked up): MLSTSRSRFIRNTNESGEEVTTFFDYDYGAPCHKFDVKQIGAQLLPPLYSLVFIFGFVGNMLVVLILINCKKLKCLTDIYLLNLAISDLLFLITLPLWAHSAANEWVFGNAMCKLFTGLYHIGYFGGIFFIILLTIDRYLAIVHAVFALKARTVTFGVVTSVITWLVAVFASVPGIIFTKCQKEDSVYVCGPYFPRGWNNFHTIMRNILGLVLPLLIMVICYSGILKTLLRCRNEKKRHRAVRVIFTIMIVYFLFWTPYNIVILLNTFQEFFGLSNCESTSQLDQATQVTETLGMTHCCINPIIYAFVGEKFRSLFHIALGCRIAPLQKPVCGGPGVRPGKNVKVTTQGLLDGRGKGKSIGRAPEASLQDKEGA

[2] = Plasma clearance in rat at 3 mg/kg; type: ADME, organism-based; design: dose 3 mg/kg
[3] = test system: Monocyte; experiment: Inhibition of MCP1-stimulated chemotaxis of human monocyte; type: functional, cell-based
[4] = Half life in rat at 3 mg/kg; type: ADME, organism-based; design: dose 3 mg/kg; details: in vivo
[5] = Oral bioavailability in rat at 3 mg/kg; type: ADME, organism-based; details: in vivo
[6] = biological target: Substance-P receptor (Homo sapiens, UniProt P25103); experiment: Inhibition of NK1
Chain of Substance-P receptor (P25103 whole entry): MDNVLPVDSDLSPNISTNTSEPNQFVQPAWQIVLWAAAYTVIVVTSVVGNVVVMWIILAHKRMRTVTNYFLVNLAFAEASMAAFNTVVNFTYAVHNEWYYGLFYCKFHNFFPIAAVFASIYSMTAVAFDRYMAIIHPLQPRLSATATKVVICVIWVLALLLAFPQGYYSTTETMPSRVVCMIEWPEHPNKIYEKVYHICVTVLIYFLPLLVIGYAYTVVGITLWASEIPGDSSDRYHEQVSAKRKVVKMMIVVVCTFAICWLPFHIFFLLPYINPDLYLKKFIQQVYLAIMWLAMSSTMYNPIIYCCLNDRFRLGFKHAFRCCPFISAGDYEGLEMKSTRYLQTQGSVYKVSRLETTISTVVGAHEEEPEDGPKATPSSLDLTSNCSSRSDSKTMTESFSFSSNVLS

[7] = biological target: T2, C-C chemokine receptor type 5 (Homo sapiens, UniProt P51681); experiment: Inhibition of CCR5
Target sequence in this assay (P51681 whole entry): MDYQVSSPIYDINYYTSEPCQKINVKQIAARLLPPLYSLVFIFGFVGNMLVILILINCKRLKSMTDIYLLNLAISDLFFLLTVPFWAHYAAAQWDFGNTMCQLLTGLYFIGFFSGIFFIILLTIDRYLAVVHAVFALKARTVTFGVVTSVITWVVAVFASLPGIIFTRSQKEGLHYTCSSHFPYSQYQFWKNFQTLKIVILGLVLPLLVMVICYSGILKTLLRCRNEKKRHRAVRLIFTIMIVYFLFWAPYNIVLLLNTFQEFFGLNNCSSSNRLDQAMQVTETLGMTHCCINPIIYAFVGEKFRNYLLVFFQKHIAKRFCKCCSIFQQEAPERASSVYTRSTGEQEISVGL

[8] = biological target: T1, C-C chemokine receptor type 2; experiment: Inhibition of [125I]MCP1 binding to CCR2 expressed in CHO cells; type: cell-based
Target sequence in this assay (P41597 whole entry): as the sequence (P41597 whole entry, looked up) above

[9] = biological target: T2, C-C chemokine receptor type 5; experiment: Inhibition of CCR5 at 0.01 uM
Target sequence in this assay (P51681 whole entry, looked up): as the sequence (P51681 whole entry) above

[10] = test system: Monocyte; experiment: Inhibition of MCP1-stimulated chemotaxis of human monocyte at 1 uM; type: functional

inhibition [1] [%]	IC50 [8] [nM]	Compound	also measured
–	160	O=C(NCc1cc(C(F)(F)F)cc(C(F)(F)F)c1)[C@@H](CCN1CCC(c2ccsc2)CC1)c1ccc(F)cc1	–
44	–	O=C(NCc1cc(C(F)(F)F)cc(C(F)(F)F)c1)[C@@H](CCN1CCC(c2ccccc2)C1)c1ccc(F)cc1 (stereo not given in full)	–
–	930	O=C(NCc1cc(C(F)(F)F)cc(C(F)(F)F)c1)[C@H](CCN1CCC(c2ccccc2)CC1)c1ccc(F)cc1	–
–	780	CC1CN(CC[C@H](C(=O)NCc2cc(C(F)(F)F)cc(C(F)(F)F)c2)c2ccc(F)cc2)CCN1c1ccccc1 (stereo not given in full)	–
18	–	O=C(NCc1cc(C(F)(F)F)cc(C(F)(F)F)c1)[C@@H](CCN1CC(c2ccccc2)C1)c1ccc(F)cc1	–
–	1500	CC(C[C@H](C(=O)NCc1cc(C(F)(F)F)cc(C(F)(F)F)c1)c1ccc(F)cc1)N1CCC(c2ccccc2)CC1 (stereo not given in full)	–
0	–	CC(CN1CCC(c2ccccc2)CC1)[C@H](CNCc1cc(C(F)(F)F)cc(C(F)(F)F)c1)c1ccc(F)cc1 (stereo not given in full)	–
3	–	O=C(NCc1cc(C(F)(F)F)cc(C(F)(F)F)c1)[C@@H](CCN1CCCC(c2ccccc2)CC1)c1ccc(F)cc1 (stereo not given in full)	–
–	1100	O=C(NCc1cc(C(F)(F)F)cc(C(F)(F)F)c1)[C@@H](CCCN1CCC(c2ccccc2)CC1)c1ccc(F)cc1	–
–	150	O=C(NCc1cc(C(F)(F)F)cc(C(F)(F)F)c1)[C@@H](CCN1CCC(c2ccccc2)CC1)c1ccc(F)cc1	inhibition at 1 µM [10]: 40%; IC50 [6]: 24 nM; IC50 [7]: 72 nM

The remaining lines, values behind:

Compound	inhibition [1] [%]	IC50 [8] [nM]	also measured
O=C(NCc1cc(C(F)(F)F)cc(C(F)(F)F)c1)[C@@H](CCN1CCN(c2ccccc2)CC1)c1ccc(F)cc1	11	–	–
O=C(NCc1cc(C(F)(F)F)cc(C(F)(F)F)c1)[C@@H](CCN1CCC2(C=Cc3ccccc32)CC1)c1ccc(F)cc1	–	80	clearance [2]: 6 mL/min/kg; IC50 [3]: 176 nM; half-life [4]: 8 h; bioavailability [5]: 38%; IC50 [6]: 50 nM; IC50 [7]: 30 nM
C[C@H]1CN(CC[C@H](CNCc2cc(C(F)(F)F)cc(C(F)(F)F)c2)c2ccc(F)cc2)CC[C@@H]1c1ccccc1	–	140	–
C=CCN1CCC(N(CC[C@H](C(=O)NCc2cc(C(F)(F)F)cc(C(F)(F)F)c2)c2ccc(F)cc2)C(=O)OCc2ccccc2)CC1	14	–	–
CN(C)CCN[C@H](C(=O)NCc1cc(C(F)(F)F)cc(C(F)(F)F)c1)c1ccc(F)cc1	–	720	–
C[C@@H]1CN(CC[C@H](C(=O)NCc2cc(C(F)(F)F)cc(C(F)(F)F)c2)c2ccc(F)cc2)CC[C@]12C=Cc1ccccc12	–	120	IC50 [3]: 62 nM
O=C(NCc1cc(C(F)(F)F)cc(C(F)(F)F)c1)[C@@H](CCN1CCC2(CCc3ccccc32)CC1)c1ccc(F)cc1	–	320	–
O=C(NCc1cc(C(F)(F)F)cc(C(F)(F)F)c1)[C@@H](CCN1CCCCC1)c1ccc(F)cc1	–	1100	–
C[C@H]1CN(CC[C@H](C(=O)NCc2cc(C(F)(F)F)cc(C(F)(F)F)c2)c2ccc(F)cc2)CC[C@@]12C=Cc1ccccc12	–	59	IC50 [3]: 41 nM; inhibition [9]: 26%; IC50 [6]: 28 nM
O=C(NCc1cc(C(F)(F)F)cc(C(F)(F)F)c1)[C@@H](CCN1CCCC(Cc2ccccc2)C1)c1ccc(F)cc1 (stereo not given in full)	43	–	–
CC1CN(CC[C@H](C(=O)NCc2cc(C(F)(F)F)cc(C(F)(F)F)c2)c2ccc(F)cc2)CCC12C=Cc1ccccc12 (stereo not given in full)	–	45	–
O=C(NCc1cc(C(F)(F)F)cc(C(F)(F)F)c1)[C@@H](CCN1CCC(C2CCCCC2)CC1)c1ccc(F)cc1	20	–	–
O=C(NCc1cc(C(F)(F)F)cc(C(F)(F)F)c1)[C@@H](CCCN1CCCCC1)c1ccc(F)cc1	–	1000	–
CCC1CN(CC[C@H](C(=O)NCc2cc(C(F)(F)F)cc(C(F)(F)F)c2)c2ccc(F)cc2)CCC12C=Cc1ccccc12 (stereo not given in full)	–	440	–
O=C(NCc1cc(C(F)(F)F)cc(C(F)(F)F)c1)[C@@H](CCN1CC[C@@H]2c3ccccc3CC[C@H]2C1)c1ccc(F)cc1	6	–	–
C[C@](CCN1CCC(c2ccccc2)CC1)(CNCc1cc(C(F)(F)F)cc(C(F)(F)F)c1)c1ccc(F)cc1	–	1070	–
C[C@@H]1CN(CC[C@H](CNCc2cc(C(F)(F)F)cc(C(F)(F)F)c2)c2ccc(F)cc2)CC[C@@H]1c1ccccc1	–	700	–
